Data taken from the NIST ThermoML archive (doi:10.1021/je900722m).

Test: xn = mol fraction of the nth substance listed
Conditions: 101 kPa, Liquid

CC(C)(C)O [2-methylpropan-2-ol] + CCCCO
Conditions | mass density [kg/m3] | viscosity [mPa·s]
308.15 K, x2 = 0.1017 | 774.752 | 3.438
308.15 K, x2 = 0.2006 | 778.293 | 3.374
308.15 K, x2 = 0.3008 | 781.316 | 3.302
308.15 K, x2 = 0.4005 | 784.068 | 3.22
308.15 K, x2 = 0.5011 | 786.651 | 3.125
308.15 K, x2 = 0.6002 | 789.119 | 3.021
308.15 K, x2 = 0.6975 | 791.52 | 2.912
308.15 K, x2 = 0.7987 | 793.957 | 2.791
308.15 K, x2 = 0.8978 | 796.247 | 2.667
313.15 K, x2 = 0.1017 | 769.698 | 2.787
313.15 K, x2 = 0.2006 | 773.439 | 2.763
313.15 K, x2 = 0.3008 | 776.66 | 2.733
313.15 K, x2 = 0.4005 | 779.566 | 2.693
313.15 K, x2 = 0.5011 | 782.289 | 2.64
313.15 K, x2 = 0.6002 | 784.884 | 2.577
313.15 K, x2 = 0.6975 | 787.385 | 2.508
313.15 K, x2 = 0.7987 | 789.899 | 2.429
313.15 K, x2 = 0.8978 | 792.264 | 2.347
318.15 K, x2 = 0.1017 | 764.541 | 2.299
318.15 K, x2 = 0.2006 | 768.484 | 2.302
318.15 K, x2 = 0.3008 | 771.902 | 2.298
318.15 K, x2 = 0.4005 | 774.974 | 2.284
318.15 K, x2 = 0.5011 | 777.844 | 2.258
318.15 K, x2 = 0.6002 | 780.565 | 2.223
318.15 K, x2 = 0.6975 | 783.18 | 2.182
318.15 K, x2 = 0.7987 | 785.795 | 2.131
318.15 K, x2 = 0.8978 | 788.241 | 2.076
323.15 K, x2 = 0.1017 | 759.283 | 1.922
323.15 K, x2 = 0.2006 | 763.421 | 1.942
323.15 K, x2 = 0.3008 | 767.037 | 1.956
323.15 K, x2 = 0.4005 | 770.272 | 1.957
323.15 K, x2 = 0.5011 | 773.307 | 1.95
323.15 K, x2 = 0.6002 | 776.162 | 1.934
323.15 K, x2 = 0.6975 | 778.901 | 1.91
323.15 K, x2 = 0.7987 | 781.617 | 1.877
323.15 K, x2 = 0.8978 | 784.158 | 1.841
328.15 K, x2 = 0.1017 | 753.923 | 1.635
328.15 K, x2 = 0.2006 | 758.252 | 1.666
328.15 K, x2 = 0.3008 | 762.068 | 1.69
328.15 K, x2 = 0.4005 | 765.483 | 1.704
328.15 K, x2 = 0.5011 | 768.677 | 1.709
328.15 K, x2 = 0.6002 | 771.695 | 1.704
328.15 K, x2 = 0.6975 | 774.542 | 1.692
328.15 K, x2 = 0.7987 | 777.372 | 1.672
328.15 K, x2 = 0.8978 | 780.002 | 1.65
333.15 K, x2 = 0.1017 | 748.453 | 1.406
333.15 K, x2 = 0.2006 | 752.974 | 1.439
333.15 K, x2 = 0.3008 | 756.986 | 1.466
333.15 K, x2 = 0.4005 | 760.579 | 1.486
333.15 K, x2 = 0.5011 | 763.946 | 1.5
333.15 K, x2 = 0.6002 | 767.111 | 1.504
333.15 K, x2 = 0.6975 | 770.1 | 1.501
333.15 K, x2 = 0.7987 | 773.05 | 1.492
333.15 K, x2 = 0.8978 | 775.796 | 1.478
338.15 K, x2 = 0.1017 | 742.882 | 1.221
338.15 K, x2 = 0.2006 | 747.587 | 1.254
338.15 K, x2 = 0.3008 | 751.795 | 1.282
338.15 K, x2 = 0.4005 | 755.568 | 1.306
338.15 K, x2 = 0.5011 | 759.113 | 1.324
338.15 K, x2 = 0.6002 | 762.433 | 1.335
338.15 K, x2 = 0.6975 | 765.569 | 1.339
338.15 K, x2 = 0.7987 | 768.651 | 1.34
338.15 K, x2 = 0.8978 | 771.52 | 1.335
343.15 K, x2 = 0.1017 | 737.201 | 1.07
343.15 K, x2 = 0.2006 | 742.083 | 1.103
343.15 K, x2 = 0.3008 | 746.492 | 1.131
343.15 K, x2 = 0.4005 | 750.446 | 1.156
343.15 K, x2 = 0.5011 | 754.166 | 1.177
343.15 K, x2 = 0.6002 | 757.655 | 1.191
343.15 K, x2 = 0.6975 | 760.941 | 1.2
343.15 K, x2 = 0.7987 | 764.169 | 1.207
343.15 K, x2 = 0.8978 | 767.155 | 1.208
